# Source: US20240110004A1 (Northwestern University, priority 2022, published 2024)
# Where no end group is shown, it is not given here.
# Experiments:
# [1] = test system: R6/2 mice; experiment: Western blot of DARPP-32, PSD95 and BDNF in striatal lysates; assay type: in vivo, mouse
# Excerpt: FIG. 32A-32C: Histograms of Quantified Western Blot Results for Protein Levels (blots not shown). Actin was used as the loading control in the Western Blot, results are therefore depicted as ratios of the protein of interest signal relative to the actin signal in each sample. FIG. 32A depicts DARPP-32 levels in striatal lysates. p-value for: WT veh as compared to R62 veh: <0.0001; WT+P1 as compared to R62 veh: <0.0001; R62 veh as compared to R62+HV3-TAT: 0.0493; R62 veh as compared to R62+P1: 0.0027; R62+P1 as compared to R62+HV3-TAT: 0.7733. FIG. 32B depicts PSD95 levels in striatal lysates. p-value for: WT veh as compared to R62 veh: 0.0034; WT+P1 as compared to R62 veh: <0.0001; R62 veh as compared to R62+HV3-TAT: 0.0191; R62 veh as compared to R62+P1: <0.0001; R62+P1 as compared to R62+HV3-TAT: 0.1442. FIG. 32C depicts BDNF levels in striatal lysates. p-value for: WT veh as compared to R62 veh: <0.0001; WT+P1 as compared to R62 veh: <0.0001; R62 veh as compared to R62+HV3-TAT: 0.0120; R62 veh as compared to R62+P1: <0.0001; R62+P1 as compared to R62+HV3-TAT: 0.0257.
# In vivo Efficacy Methods—Levels of Proteins of Interest: To further assess the efficacy of P1 in modulating HD neuropathology, the levels of cAMP-regulated phosphoprotein 32 kDa (DARPP-32), post-synaptic density protein (PSD95), and brain derived neurotrophic factor (BDNF) were determined in medium spiny neurons, each of which are decreased in the striatum of HD patients and R6/2 mouse models. Striatal lysates were generated from frozen striatal tissue from un-perfused sacrificed mice. Using a plate reader, protein concentrations were determined by protein assay dye (Bio-Rad). Protein stocks in lysis buffer were mixed with Laemmli buffer, loaded on SDS-PAGE, and transferred onto nitrocellulose membranes (Invitrogen). Membranes were probed with the primary antibodies for actin, DARPP-32, PSD95, and BDNF, and respective IgG-HRP secondary antibodies, followed by visualization of HRP with a blot scanner.
# [2] = human, microsomes
substance,measurement,setting,value
"P1: PLP homopolymer having peptide side chains of SEQ ID: 1 (HVLVMSATRR), made by ROMP of norbornene peptide monomer M1 (also: side chains of polynorbornene homopolymer (PLP, ROMP of norbornene peptide monomer))",BDNF protein levels in striatal lysates,[1]; compared to the saline control,Significant increases
same,PSD95 protein levels in striatal lysates,[1]; compared to the saline control,Significant increases
same,DARPP-32 levels in striatal lysates (immunoblotting),[1]; over saline control,significantly increased DARPP-32 levels
same,liver microsomal stability,[2],superior stability
